The text below walks through data of ChEMBL document CHEMBL1201862, “PubChem BioAssay data set” (2004).

SMILES strings stand for the structures.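 Exposure lasted 48 hours, with cells grown in 96-well plates and compounds tested at five concentrations. GI50 marks 50% less growth.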 Activity calls are given as the source filed them. Rule as the data show it: active = GI50 up to about 1.1 µM and inactive = higher. Some results are limits rather than exact numbers.

Test systems include SR; SK-OV-3; UACC-257; TK-10; UACC-62; OVCAR-4; IGROV-1; LOX IMVI; OVCAR-3; OVCAR-8; CCRF-CEM; RXF 393; Malme-3M; 786-0; NCI-H522; SF-295; OVCAR-5; MOLT-4; RPMI-8226; HOP-62.
Holding throughout (assay): DTP human tumour cell line panel, 48 h

The term GI50 denotes the concentration giving 50% growth inhibition. As for `C=C(Br)CN(C)CC(=C)Br`, the GI50 is > 100 µM (inactive) in the assay with SR; > 100 µM (inactive) in the assay with SK-OV-3; > 100 µM (inactive) in the assay with UACC-257; 50.1 µM (inactive) with TK-10; > 100 µM (inactive) in the assay with UACC-62; > 100 µM (inactive) in the assay on OVCAR-4. Also, the GI50 in the assay with IGROV-1, with LOX IMVI, in the assay with OVCAR-3, with OVCAR-8, in the assay on CCRF-CEM and in the assay on RXF 393 was > 100 µM (inactive) each time. Also, the GI50 in the assay on Malme-3M, in the assay on 786-0, with NCI-H522, with SF-295, in the assay with OVCAR-5 and with MOLT-4 was > 100 µM (inactive) throughout. The GI50 in the assay with RPMI-8226 and in the assay on HOP-62 was > 100 µM (inactive) in each case.
Turning to `COc1cccc(/C=C/C(=O)c2sc(C(N)=S)nc2C)c1O`, the GI50 in the assay with SR is 12.5 µM (inactive); in the assay on SK-OV-3, > 100 µM (inactive); in the assay on UACC-257, > 100 µM (inactive); in the assay on TK-10 it was > 100 µM (inactive); in the assay on UACC-62, > 100 µM (inactive); with OVCAR-4, > 72.8 µM (inactive). Moreover, the GI50 in the assay on IGROV-1 is > 61.5 µM (inactive); in the assay with LOX IMVI it was 22.4 µM (inactive); with OVCAR-3, > 60.3 µM (inactive); in the assay on OVCAR-8, > 96.2 µM (inactive); in the assay with CCRF-CEM, 21.4 µM (inactive); in the assay with RXF 393 it was > 74.3 µM (inactive). The GI50 in the assay with Malme-3M is > 100 µM (inactive); in the assay on 786-0, 34.8 µM (inactive); in the assay on NCI-H522 it was > 48.3 µM (inactive); with SF-295, > 94.6 µM (inactive); with OVCAR-5, > 100 µM (inactive); in the assay with MOLT-4, 25.1 µM (inactive). The GI50 was 20.5 µM (inactive) in the assay with RPMI-8226 and > 100 µM (inactive) in the assay on HOP-62.
`O=C(NS(=O)(=O)OCC(Cl)(Cl)Cl)SCCC(F)(F)C(F)(F)C(F)(F)C(F)(F)C(F)(F)C(F)(F)F`: the GI50 in the assay on SR was 32.7 µM (inactive); in the assay on SK-OV-3, 17.7 µM (inactive); with UACC-257, 35.5 µM (inactive); in the assay on TK-10, 29.5 µM (inactive); with UACC-62, 18.8 µM (inactive); with OVCAR-4, 16.4 µM (inactive). For the same compound, the GI50 with IGROV-1 is 37.4 µM (inactive); with LOX IMVI, 22.5 µM (inactive); in the assay on OVCAR-3, 24.9 µM (inactive); in the assay with OVCAR-8, 51.3 µM (inactive); with CCRF-CEM, 22.8 µM (inactive); in the assay with RXF 393 it was 22.5 µM (inactive). Moreover, the GI50 is 17.9 µM (inactive) in the assay on Malme-3M; 35.6 µM (inactive) in the assay on 786-0; 20 µM (inactive) with NCI-H522; 20.2 µM (inactive) in the assay on SF-295; 18.6 µM (inactive) in the assay with OVCAR-5; 29 µM (inactive) in the assay on MOLT-4. Also, the GI50 is 18.5 µM (inactive) in the assay with RPMI-8226 and 28.2 µM (inactive) in the assay on HOP-62.
For `O=C(O)CNC(=O)c1cccc2c(=O)c3ccccc3[nH]c12`, the GI50 with SR is 14.9 µM (inactive); in the assay with SK-OV-3 it was > 100 µM (inactive); in the assay with UACC-257, > 100 µM (inactive); in the assay with TK-10, > 100 µM (inactive); in the assay with UACC-62, 99.8 µM (inactive); in the assay with OVCAR-4, > 100 µM (inactive). Besides, the GI50 with IGROV-1 was 26.9 µM (inactive); with LOX IMVI, > 100 µM (inactive); in the assay on OVCAR-3, > 100 µM (inactive); in the assay on OVCAR-8, > 100 µM (inactive); with CCRF-CEM, 97.3 µM (inactive); with RXF 393 it was > 100 µM (inactive). Besides, the GI50 with Malme-3M, in the assay on 786-0, with NCI-H522, with SF-295, in the assay on OVCAR-5 and in the assay with MOLT-4 was > 100 µM (inactive) throughout. The GI50 in the assay with RPMI-8226 and in the assay with HOP-62 was > 100 µM (inactive) throughout.
As for `NC(=O)c1ccccc1NC(=O)C(=O)Nc1n[nH]c(N)n1`, the GI50 in the assay on SR, in the assay on SK-OV-3, in the assay with UACC-257, in the assay with TK-10, in the assay on UACC-62 and in the assay with OVCAR-4 was > 100 µM (inactive) in each case. For the same compound, the GI50 in the assay on IGROV-1, in the assay on LOX IMVI, with OVCAR-3, in the assay with OVCAR-8, in the assay with CCRF-CEM and in the assay with RXF 393 was > 100 µM (inactive) in each case. The GI50 with Malme-3M, with 786-0, with NCI-H522, in the assay with SF-295, in the assay on OVCAR-5 and with MOLT-4 was > 100 µM (inactive) in each case. The GI50 in the assay on RPMI-8226 and with HOP-62 was > 100 µM (inactive) throughout.
For `CCOC(=O)C(SCCO)C(C(=O)OCC)n1ccc(=O)[nH]c1=O` (stereo not given), the GI50 in the assay on SR was 11.9 µM (inactive); with SK-OV-3, > 100 µM (inactive); with UACC-257, > 63.7 µM (inactive); in the assay with TK-10, > 56.8 µM (inactive); with UACC-62 it was 20.4 µM (inactive); with OVCAR-4, > 49.3 µM (inactive). The GI50 in the assay on IGROV-1 was 31.9 µM (inactive); in the assay with LOX IMVI, 14.8 µM (inactive); in the assay with OVCAR-3, 23.3 µM (inactive); in the assay on OVCAR-8 it was 25.1 µM (inactive); in the assay with CCRF-CEM, 1.98 µM (inactive); in the assay with RXF 393, 24.2 µM (inactive). Also, the GI50 in the assay with Malme-3M was 12.5 µM (inactive); in the assay with 786-0, 16.6 µM (inactive); in the assay on NCI-H522, 3.77 µM (inactive); in the assay on SF-295, > 100 µM (inactive); in the assay with OVCAR-5, 22.1 µM (inactive); with MOLT-4, 3.01 µM (inactive). Besides, the GI50 in the assay on RPMI-8226 was 17.5 µM (inactive); in the assay on HOP-62, > 60.7 µM (inactive).
Take `C=C(Cl)C(Br)(CCl)CCC(Br)C(C)(C)Cl` (stereo not given): the GI50 in the assay on SR is 2.92 µM (inactive); in the assay on SK-OV-3, 14 µM (inactive); with UACC-257, 2.67 µM (inactive); with TK-10, 12.2 µM (inactive); with UACC-62, 3.37 µM (inactive); with OVCAR-4, 8.83 µM (inactive). Further, the GI50 with IGROV-1 is 5.82 µM (inactive); with LOX IMVI, 1.25 µM (inactive); in the assay with OVCAR-3 it was 6.17 µM (inactive); in the assay with OVCAR-8 it was 3.38 µM (inactive); in the assay on CCRF-CEM it was 0.92 µM (active); with RXF 393, 2.72 µM (inactive). Also, the GI50 is 2.83 µM (inactive) in the assay with Malme-3M; 1.95 µM (inactive) with 786-0; 3.42 µM (inactive) in the assay on NCI-H522; 5.77 µM (inactive) with SF-295; 7.21 µM (inactive) in the assay with OVCAR-5; 1.6 µM (inactive) in the assay with MOLT-4. Further, the results for the GI50 in the assay on RPMI-8226 and in the assay on HOP-62 were 2.06 µM (inactive) and 2.76 µM (inactive), respectively.
`CC(=O)N(C)SCC(NC(=O)C(Cc1ccccc1)NC(=O)OCc1ccccc1)C(=O)NC(Cc1ccccc1)C(=O)NC(Cc1cn(C=O)c2ccccc12)C(=O)NC(CCCCNC(=O)OCc1ccccc1)C(=O)NC(C(=O)NC(CSN(C)C(C)=O)C(=O)NO)C(C)OCc1ccccc1` (stereo not given): the GI50 with SR, in the assay with SK-OV-3, in the assay on UACC-257, with TK-10, with UACC-62 and in the assay with OVCAR-4 was > 100 µM (inactive) throughout. Moreover, the GI50 in the assay on IGROV-1, with LOX IMVI, in the assay on OVCAR-3, in the assay on OVCAR-8, in the assay on CCRF-CEM and in the assay with RXF 393 was > 100 µM (inactive) in each case. Also, the GI50 in the assay on Malme-3M, with 786-0, with NCI-H522, with SF-295, in the assay with OVCAR-5 and with MOLT-4 was > 100 µM (inactive) throughout. The GI50 in the assay with RPMI-8226 and in the assay with HOP-62 was > 100 µM (inactive) each time.
Take `CC1OC(n2cc(F)c(=O)[nH]c2=O)CCC1O` (stereo not given): the GI50 with SR is > 94 µM (inactive); in the assay with SK-OV-3 it was > 100 µM (inactive); with UACC-257 it was > 100 µM (inactive); with TK-10 it was > 100 µM (inactive); in the assay on UACC-62 it was > 100 µM (inactive); in the assay on OVCAR-4, > 100 µM (inactive). For the same compound, the GI50 in the assay with IGROV-1 was > 100 µM (inactive); with LOX IMVI, > 100 µM (inactive); with OVCAR-3, > 100 µM (inactive); in the assay on OVCAR-8 it was > 85.3 µM (inactive); with CCRF-CEM, > 100 µM (inactive); in the assay on RXF 393, > 79.6 µM (inactive). Moreover, the GI50 in the assay with Malme-3M was 99.8 µM (inactive); in the assay with 786-0 it was > 100 µM (inactive); in the assay on NCI-H522, > 95.1 µM (inactive); in the assay with SF-295, > 84.5 µM (inactive); with OVCAR-5 it was > 100 µM (inactive); in the assay on MOLT-4 it was > 100 µM (inactive). The GI50 in the assay with RPMI-8226 was 56.1 µM (inactive); with HOP-62 it was > 87.1 µM (inactive).
`CCCCCC[N+](C)(C)Cc1ccc(C[N+](C)(C)CCCCCC)cc1`: the GI50 is 2.19 µM (inactive) in the assay with SR; 9.66 µM (inactive) in the assay with SK-OV-3; 10.8 µM (inactive) with UACC-257; 5.64 µM (inactive) with TK-10; 8.32 µM (inactive) in the assay on UACC-62; 4.58 µM (inactive) in the assay with OVCAR-4. Also, the GI50 was 2.54 µM (inactive) with IGROV-1; 2.09 µM (inactive) in the assay on LOX IMVI; 3.78 µM (inactive) in the assay with OVCAR-3; 3.1 µM (inactive) in the assay on OVCAR-8; 2.73 µM (inactive) in the assay with CCRF-CEM; 0.984 µM (active) in the assay on RXF 393. Besides, the GI50 was 7.76 µM (inactive) in the assay with Malme-3M; 3.52 µM (inactive) in the assay with 786-0; 1.74 µM (inactive) with NCI-H522; 2.79 µM (inactive) in the assay with SF-295; 10.9 µM (inactive) with OVCAR-5; 1.54 µM (inactive) in the assay on MOLT-4. Moreover, the GI50 in the assay with RPMI-8226 is 4.23 µM (inactive); with HOP-62, 3.05 µM (inactive).
